pIC50: −log10 of the molar value.
Legend:
[1] = system: DNBS-induced distal colitis in Wistar derived rats; assay: Dinitrobenzene sulfonic acid-induced inflammatory bowel syndrome model rats; type: in vivo, rat; conditions: oral, 24 and 2 hours before DNBS instillation and then daily for 5 days
Method: Wistar derived male or female rats weighing 200±20 g and fasted for 24 hours are used. Distal colitis was induced by intra-colonic instillation of 2,4-dinitrobenzene sulfonic acid (DNBS, 25 mg in 0.5 mL ethanol 30%) after which air (2 mL) is gently injected through the cannula to ensure that the solution remained in the colon. A test compound and/or vehicle is administered orally 24 and 2 hours before DNBS instillation and then daily for 5 days. One control group is similarly treated with vehicle alone while the other is treated with vehicle plus DNBS. The animals are sacrificed 24 hours after the final dose of test compound administration and each colon is removed and weighed. Colon-to-body weight ratio is then calculated for each animal according to the formula: Colon (g)/BW×100. The “Net” increase in ratio of Vehicle-control+DNBS group relative to Vehicle-control group is used as a base for comparison with test substance treated groups and expressed as “% Deduction.” Fused heterocyclic compounds of this invention (e.g., Compound 12) reproducibly have about 30% deduction. A 30% or more reduction in colon-to-body weight ratio, relative to the vehicle treated control group, is considered significant.

[2] = system: IL-12 production; assay: In vitro assay of Example 12: inhibition of IL-12 production in IFNγ/LPS- or IFNγ/SAC-stimulated cells, ELISA; type: cell-based, human; conditions: Homo sapiens
From the text: The biological activities of a compound can be evaluated by a number of cell-based assays. One of such assays can be conducted using cells from human peripheral blood mononuclear cells (PBMC) or human monocytic cell line (THP-1). The cells are stimulated with a combination of human interferon-γ (IFNγ) and lipopolysaccharide or a combination of IFNγ and Staphylococcus aureus Cowan I in the presence of a test compound. The level of inhibition of IL-12 production can be measured by determining the amount of p70 by using a sandwich ELISA assay with anti-human IL-12 antibodies. IC50 of the test compound can then be determined. Specifically, PBMC or THP-1 cells are incubated with the test compound. Cell viability was assessed using the bioreduction of MTS [3-(4,5-dimethylthiazol-2-yl)-5-(3-carboxymethoxyphenyl)-2-(4-sulfophenyl)-2H-tetrazolium] (Promega, Madison, Wis.).
Staphylococcus aureus Cowan I (SAC) is obtained from Calbiochem (La Jolla, Calif.), and lipopolysaccharide (LPS, Serratia marscencens) is obtained from Sigma (St. Louis, Mo.). Human and mouse recombinant IFNγ are purchased from Boehringer Mannheim (Mannheim, Germany) and Pharmingen (San Diego, Calif.), respectively.
Human PBMC are isolated by centrifugation using Ficoll-Paque (Pharmacia Biotech, Uppsala, Sweden) and prepared in RPMI medium supplemented with 10% fetal calf serum (FCS), 100 U/mL penicillin, and 100 μg/mL streptomycin. PBMC are plated in wells of a 96-well plate at a concentration of 5×10^5 cells/well, and primed by adding IFNγ (30 U/mL) for 22 h and stimulated by adding LPS (1 μg/mL), or by adding IFNγ (100 U/mL) and then stimulated by adding SAC (0.01%). A test quinazoline compound is dissolved in DMSO, and added to wells of the 96-well plate. The final DMSO concentration is adjusted to 0.25% in all cultures, including the compound-free control. Human THP-1 cells are plated in wells, primed by adding IFNγ (100 U/mL) for 22 h and stimulated by adding SAC (0.025%) in the presence of different concentrations of the quinazoline compound. Cell-free supernatants are taken 18 h later for measurement of cytokines. Cell viability is assessed using the bioreduction of MTS. Cell survival is estimated by determining the ratio of the absorbance in compound-treated groups versus compound-free control.
The supernatant is assayed for the amount of IL-12p40, IL-12p70, or IL-10 by using a sandwich ELISA with anti-human antibodies, i.e., a Human IL-12 p40 ELISA kit from R&D Systems (Berkeley, Calif.), and a Human IL-12 p70 or IL-10 ELISA kit from Endogen (Cambridge, Mass.). Assays are based on the manufacturer's instructions.
The biological activities of quinazoline compounds are tested on human PBMC or THP-1 cells.

[3] = system: colitis in C.B-17 SCID mice; assay: CD4+ CD45Rb high T cell-reconstituted SCID colitis model mice; type: in vivo, mouse
Method: Spleen cells are prepared from normal female BALB/c mice. For cell purification, the following anti-mouse antibodies are used to label non-CD4^+ T cells: B220 (RA3-6B2), CD11b (Ml/70), and CD8a (53-6.72). All antibodies are obtained from BioSource (Camarillo, Calif.). M450 anti-rat IgG-coated magnetic beads (Dynal, Oslo, Norway) are used to bind the antibodies and negative selection is accomplished using an MPC-1 magnetic concentrator. The enriched CD4^+ cells are then labeled for cell sorting with FITC-conjugated CD45RB (16A, Pharmingen, San Diego, Calif.) and PE-conjugated CD4 (CT-CD4, Caltag, Burlingame, Calif.). CD4^+ CD45RB^high cells are operationally defined as the upper 40% of CD45Rb-staining CD4^+ cells and sorted under sterile conditions by flow cytometry. Harvested cells are resuspended at 4×10^6/mL in PBS and injected 100 μL intraperitoneally into female C.B-17 SCID mice. Fused heterocyclic compounds of this invention and/or vehicle is orally administered once a day, 5 days per week, starting the day following the transfer. The transplanted SCID mice are weighed weekly and their clinical condition is monitored.
Colon tissue samples are fixed in 10% buffered formalin and embedded in paraffin. Sections (4 μm) collected from ascending, transverse, and descending colon are cut and stained with hematoxylin and eosin. The severity of colitis is determined based on histological examination of the distal colon sections, whereby the extent of colonic inflammation is graded on a scale of 0-3 in each of four criteria: crypt elongation, cell infiltration, depletion of goblet cells, and the number of crypt abscesses.
LP lymphocytes are isolated from freshly obtained colonic specimens. After removal of payer's patches, the colon is washed in Ca/Mg-free HBSS, cut into 0.5 cm pieces and incubated twice in HBSS containing EDTA (0.75 mM), DTT (1 mM), and antibiotics (amphotericin 2.5 μg/mL, gentamicin 50 μg/mL from Sigma) at 37° C. for 15 min. Next, the tissue is digested further in RPMI containing 0.5 mg/mL collagenase D, 0.01 mg/mL DNase I (Boehringer Manheim), and antibiotics at 37° C. LP cells are then layered on a 40-100% Percoll gradient (Pharmacia, Uppsala, Sweden), and lymphocyte-enriched populations are isolated from the cells at the 40-100% interface.
To measure cytokine production, 48-well plates are coated with 10 μg/mL murine anti-CD3ε antibody (145-2C11) in carbonate buffer (PH 9.6) overnight at 4° C. 5×10^5 LP cells are then cultured in 0.5 ml of complete medium in precoated wells in the presence of 1 μg/mL soluble anti-CD28 antibody (37.51). Purified antibodies are obtained from Pharmingen. […] Murine IFNγ is measured using an ELISA kit from Endogen (Cambridge, Mass.), according to the manufacturer's instructions.

[4] = system: adjuvant arthritis (AA) in female Lewis rats; assay: Treatment of adjuvant arthritis in rats; type: in vivo, rat; conditions: oral administration once a day for 12 days; dose-dependent
Method: Adjuvant arthritis (AA) is induced in female Lewis rats by the intracutaneous injection (base of the tail) of 0.1 mL of a 10 mg/mL bacterial suspension made from ground, heat-killed Mycobacterium tuberculosis H37Ra suspended in incomplete Freund's adjuvant. Rats are given a test compound orally once a day for 12 days, starting the day following the induction. The development of polyarthritis is monitored daily by macroscopic inspection and assignment of an arthritis index to each animal, during the critical period (days 10 to 25 post-immunization).
The intensity of polyarthritis scored according to the following scheme: (a) Grade each paw from 0 to 3 based on erythema, swelling, and deformity of the joints: 0 for no erythema or swelling; 0.5 if swelling is detectable in at least one joint; 1 for mild swelling and erythema; 2 for swelling and erythema of both tarsus and carpus; and 3 for ankylosis and bony deformity. Maximum score for all 4 paws is thus 12. (b) Grade for other parts of the body: for each ear, 0.5 for redness and another 0.5 if knots are present; 1 for connective tissue swelling (saddle nose); and 1 for the presence of knots or kinks in the tail. The highest possible arthritic index is […].

[5] = assay of Example 12, if more than one assay was performed, only the most active IC50 result is reported

Structure (SMILES) | pIC50 [2, 5] | also measured
Cc1cccc(-c2ccc3nc(OCCN4CCOCC4)nc(N4CCOCC4)c3c2)c1 [Compound 12, 4-Morpholin-4-yl-2-(2-morpholin-4-yl-ethoxy)-6-m-tolyl-quinazoline] | 6.72 | % Deduction (colon-to-body weight ratio) [1]: about 30%; IFNγ production by LP cells in response to anti-CD3 and anti-CD28 antibody ([3]; ex vivo LP cells from treated mice): greatly diminishes the production; colon-to-body weight ratio ([3]; oral administration): attenuation; colonic inflammation (histological analysis) ([3]; oral administration, compared to vehicle control): reduce colonic inflammation; colonic inflammation, suppressive effect ([3]; oral, dose of 10 mg/kg): substantial reduction; arthritic score [4]: reproducibly reduces the arthritic score; development of polyarthritis [4]: delayes the development of polyarthritis
COc1ccc(CCOc2nc(N3CCOCC3)c3cc(Nc4ccc(C)cc4)ccc3n2)cc1OC [Compound 40, {2-[2-(3,4-Dimethoxy-phenyl)-ethoxy]-4-morpholin-4-yl-quinazolin-6-yl}-p-tolyl-amine] | < 5.00 | –
COc1ccc(CCOc2nc(N3CCOCC3)c3cc(Nc4ccccc4C)ccc3n2)cc1OC [Compound 41, {2-[2-(3,4-Dimethoxy-phenyl)-ethoxy]-4-morpholin-4-yl-quinazolin-6-yl}-o-tolyl-amine] | < 5.00 | –
Cc1cccc(-c2cnc3nc(OCCN4CCOCC4)nc(N4CCOCC4)c3c2)c1 [Compound 42, 4-Morpholin-4-yl-2-(2-morpholin-4-yl-ethoxy)-6-m-tolyl-pyrido[2,3-d]pyrimidine] | < 5.00 | –
FC(F)(F)c1cccc(-c2cnc3nc(OCCN4CCOCC4)nc(N4CCOCC4)c3c2)c1 [Compound 43, 4-Morpholin-4-yl-2-(2-morpholin-4-yl-ethoxy)-6-(3-trifluoromethyl-phenyl)-pyrido[2,3-d]pyrimidine] | 5.85 | –
Cc1ccc(-c2cnc3nc(OCCN4CCOCC4)nc(N4CCOCC4)c3c2)cc1C [Compound 44, 6-(3,4-Dimethyl-phenyl)-4-morpholin-4-yl-2-(2-morpholin-4-yl-ethoxy)-pyrido[2,3-d]pyrimidine] | < 5.00 | –
c1ccc2oc(-c3cnc4nc(OCCN5CCOCC5)nc(N5CCOCC5)c4c3)cc2c1 [Compound 45, 6-Benzofuran-2-yl-4-morpholin-4-yl-2-(2-morpholin-4-yl-ethoxy)-pyrido[2,3-d]pyrimidine] | 6.11 | –
Cc1ccccc1Oc1cnc2nc(OCCN3CCOCC3)nc(N3CCOCC3)c2c1 [Compound 46, 4-Morpholin-4-yl-2-(2-morpholin-4-yl-ethoxy)-6-o-tolyloxy-pyrido[2,3-d]pyrimidine] | < 6.00 | –
Cc1ccc(Oc2cnc3nc(OCCN4CCOCC4)nc(N4CCOCC4)c3c2)cc1 [Compound 47, 4-Morpholin-4-yl-2-(2-morpholin-4-yl-ethoxy)-6-p-tolyloxy-pyrido[2,3-d]pyrimidine] | < 6.00 | –
c1ccc(Oc2cnc3nc(OCCN4CCOCC4)nc(N4CCOCC4)c3c2)cc1 [Compound 48, 4-Morpholin-4-yl-2-(2-morpholin-4-yl-ethoxy)-6-phenoxy-pyrido[2,3-d]pyrimidine] | < 6.00 | –
Cc1cccc(-c2cc(O)c3cc(OCCN4CCOCC4)cc(N4CCOCC4)c3n2)c1 [Compound 49, 8-Morpholin-4-yl-6-(2-morpholin-4-yl-ethoxy)-2-m-tolyl-quinolin-4-ol] | – | pIC50 ([2]; in an assay according to Example 12): 5.27

Reference: patent US8318730B2, “Fused hetrocyclic compounds” (Synta Pharmaceuticals Corporation, priority 2003, dated 2012)
